Assays:
Assay type in all cases: in vivo, Balb/c mice
[1] = tested on: BLG-stimulated lymphocytes; assay: Prostaglandin E2 measurement (EIA) in culture media of lymphocytes from treated mice; conditions: mice fed whey proteins 3 mg/g on day 0; drug daily day -3 to day 4; 5 days after tolerization; whey vs non-tolerized control mice, drugs vs whey proteins fed mice
Experimental: (§1) To start the experiment the mice were forced fed and/or injected i.p. with butyrate (which promotes COX-2 activity), ibuprofen (which inhibits COX activity) or saline (control) daily from day −3 to day 4. On day 0, the mice were fed by gastric feeding whey proteins (3 mg/g of body weight) or same volume of saline water. Gavage products were dissolved in 0.3 ml of saline water. At day 4 of each experiment, all mice were immunized by intraperitoneal injection of 0.08 mg of BLG as well as 0.08 mg of OVA in 0.04 ml sterile saline mixed with 0.16 ml 2% Al(OH)3 (Superfos Biosecotr A/S, Denmark). At day 4 or at day 26, blood samples were obtained from cardiac aortic punction under 3% Isoflurane anaesthesia (Abbott SA). Immediately after death, obtained by cervical dislocation, spleens were removed and pooled according to group of treatment in 20 ml chilled RPMI supplemented with 5% FCS. […] (^3H)Tdr (Amersham, Zurich) was added for the final 6 hours of culture and the plates were harvested and analyzed by scintillation counting (TopCount, Canberra Packard, Zurich). […] Stimulation indices were calculated as the ratio of blank-subtracted test and control values at 2.5 mg BLG/mL and 50 μg PHA/mL. PGE2 levels in the culture media, from lymphocytes cultured for 6 hrs or 12 hrs, were determined by using an enzyme immunoassay (EIA) kit (Cayman Chemical, ). […]

[2] = tested on: BLG-stimulated lymphocytes; assay: Cytokine ELISA (IFN-γ) in supernatants of BLG-stimulated spleen cells from treated mice; conditions: mice fed whey proteins 3 mg/g on day 0; drug daily day -3 to day 4; 5 days after tolerization; whey vs non-tolerized control mice, drugs vs whey proteins fed mice
Experimental: as §1, with “PHA/mL. […] IFN-γ” for “PHA/mL. PGE2”, “levels were measured using cytokine specific ELISA kit Endogen; which were performed according to” for “levels in”, “the manufacturers' instructions.” for “the culture media, from lymphocytes cultured for 6 hrs or 12 hrs, were determined by using an enzyme immunoassay (EIA) kit (Cayman Chemical, ).”

spleen cells = assay: Specific proliferation assay ((3H)Tdr incorporation) of spleen cells from treated mice; conditions: 4 days post-tolerization; index below 0.5 indicates tolerized mice; drugs compared with whey proteins fed mice
Experimental: as §1, with “FCS. Spleen cell solutions were homogenized through a cellular sieve (Falcon) and purified from red cells using Histopaque density centrifugation (Sigma) at 390×g for 20 min.” for “FCS.”, “PHA/mL.” for “PHA/mL. PGE2 levels in the culture media, from lymphocytes cultured for 6 hrs or 12 hrs, were determined by using an enzyme immunoassay (EIA) kit (Cayman Chemical, ).”

anti-BLG IgE = assay: Measurement of specific anti-BLG IgE antibody in serum by ELISA; conditions: 26 days post-tolerization; whey vs non-tolerized mice (p<0.05), drugs vs whey proteins fed mice
Experimental: To start the experiment the mice were forced fed and/or injected i.p. with butyrate (which promotes COX-2 activity), ibuprofen (which inhibits COX activity) or saline (control) daily from day −3 to day 4. On day 0, the mice were fed by gastric feeding whey proteins (3 mg/g of body weight) or same volume of saline water. Gavage products were dissolved in 0.3 ml of saline water. At day 4 of each experiment, all mice were immunized by intraperitoneal injection of 0.08 mg of BLG as well as 0.08 mg of OVA in 0.04 ml sterile saline mixed with 0.16 ml 2% Al(OH)3 (Superfos Biosecotr A/S, Denmark). […] (^3H)Tdr (Amersham, Zurich) was added for the final 6 hours of culture and the plates were harvested and analyzed by scintillation counting (TopCount, Canberra Packard, Zurich). […] Stimulation indices were calculated as the ratio of blank-subtracted test and control values at 2.5 mg BLG/mL and 50 μg PHA/mL. […] Optical densities were measured at 492 nm, after 15 mn of incubation at room temperature, using a Dynatech MR500 ELISA reader (Dynatech, Embrach-Embraport, Switzerland. Pooled samples from twenty non immunized female mice were used as negative controls in each plate. The cut-off dilutions were determined by calculating the dilution of the samples which gave twice the absorbance of the negative controls. Titers were expressed as the log10 of the reciprocal of the cut-off dilution.

CC(C)Cc1ccc(C(C)C(=O)O)cc1 (stereo not shown) [ibuprofen]
not observed: PGE2 production by BLG-stimulated lymphocytes in culture [1] | INF-γ production by BLG-stimulated lymphocytes in culture [2] | proliferative response index (stimulation index) (spleen cells) | humoral anti-BLG IgE titers (anti-BLG IgE)

From patent US20030232057A1, “Method and composition for inducing tolerance to an antigenic material” (priority 2000, published 2003)
